For one assay, the system named is HCT-15 tumours. Kind of assay: In vivo optical imaging of HCT-15 tumour slice against normal colon. Further details: species or system BALB c/A nude (Bom) mice. The source says:
54 Female BALB c/A nude (Bom) mice were used in the study. The use of the animals was approved by the local ethics committee. BALB c/A nude is an inbred immunocompromised mouse strain with a high take rate for human tumours as compared to other nude mice strains. The mice were 4 weeks old upon arrival and with a body weight of approx. 20 grams at the start of the study. The animals were housed in individually ventilated cages (IVC, Scanbur BK) with HEPA filtered air. The animals had ad libitum access to “Rat and Mouse nr. 3 Breeding” diet (Scanbur BK) and tap water acidified by addition of HCl to a molar concentration of 1 mM (pH 3.0).
The colon cancer cell HCT-15 is derived from human colon carcinomas and is reported to express c-Met according to Zeng et al [Clin. Exp. Metastasis, 21, 409-417. (2004)]. The cell line was proven to be tumorigenic when inoculated subcutaneously into nude mice [Flatmark et al, Eur. J. Cancer 40, 1593-1598 (2004)].
HCT-15 cells were grown and prepared for subcutaneous inoculation in RPMI (Sigma Cat# R0883) with 10% serum and penicillin/streptomycin. Stocks were made at passage number four (P4) and frozen down for storage in liquid nitrogen at 3×10^7 cells/vial in the culture media containing 5% DMSO. On the day of the transplantation, the cells were thawed quickly in a 37° C. water bath (approx. 2 min), washed and resuspended in PBS/2% serum (centrifugation at 1200 rpm for 10 min). Thorough mixing of cells in the vials was ensured every time cells were aspirated into the dosing syringe. Volumes of 0.1 ml of cell suspension were injected s.c. at the shoulder and at the back using a fine bore needle (25 G) while the animals were under light gas anaesthesia. The animals were then returned to their cages and the tumours were allowed to grow for 13-17 days. […]
Imaging was performed through a clinical laparoscope adapted to use a light source to excite the reporter and a filtering system to extract the fluorescence component. […] The images were visually scored using the standard scoring system employed for receiver operating characteristic analysis.

A further assay concerns the target T1, mouse c-Met/Fc chimera (Mus musculus, UniProt P16056).
T1 construct: purchased R&D Systems
The assay can be described thus: In vitro fluorescence polarisation assay, binding to mouse c-Met. The settings on record: dye-labelled peptide 20 nM, c-Met/Fc 0-150 nM (tested range). As to the method: The principle of the fluorescence polarisation method can briefly be described as follows:
Monochromatic light passes through a horizontal polarizing filter and excites fluorescent molecules in the sample. Only those molecules that oriented properly in the vertically polarized plane adsorb light, become excited, and subsequently emit light. The emitted light is measured in both horizontal and vertical planes. The anistropy value (A), is the ratio between the light intensities following the equation
The fluorescence anistropy measurements were performed in 384-well microplates in a volume of 10 μL in binding buffer (PBS, 0.01% Tween-20, pH 7.5) using a Tecan Safire fluorescence polarisation plate reader (Tecan, US) at ex646/em678 nm. The concentration of dye-labelled peptide was held constant (20 nM) and the concentrations of the human or mouse c-Met/Fc chimera (R&D Systems) or Semaphorin 6A (R&D Systems) were varied from 0-150 nM. Binding mixtures were equilibrated in the microplate for 10 min at 30° C. The observed change in anistropy was fit to the equation
[formula] where robs is the observed anistropy, rfree is the anistropy of the free peptide, rbound is the anistropy of the bound peptide, KD is the dissociation constant, cMet is the total c-Met concentration, and P is the total dye-labelled peptide concentration. […]
A general note: Polarisation of emitted light reports the rotation of a fluorescent probe.

Bridge positions count the residues as written; N and C are the ends.

T1 sequence (P16056 with tags, fused parts or gaps limits assumed): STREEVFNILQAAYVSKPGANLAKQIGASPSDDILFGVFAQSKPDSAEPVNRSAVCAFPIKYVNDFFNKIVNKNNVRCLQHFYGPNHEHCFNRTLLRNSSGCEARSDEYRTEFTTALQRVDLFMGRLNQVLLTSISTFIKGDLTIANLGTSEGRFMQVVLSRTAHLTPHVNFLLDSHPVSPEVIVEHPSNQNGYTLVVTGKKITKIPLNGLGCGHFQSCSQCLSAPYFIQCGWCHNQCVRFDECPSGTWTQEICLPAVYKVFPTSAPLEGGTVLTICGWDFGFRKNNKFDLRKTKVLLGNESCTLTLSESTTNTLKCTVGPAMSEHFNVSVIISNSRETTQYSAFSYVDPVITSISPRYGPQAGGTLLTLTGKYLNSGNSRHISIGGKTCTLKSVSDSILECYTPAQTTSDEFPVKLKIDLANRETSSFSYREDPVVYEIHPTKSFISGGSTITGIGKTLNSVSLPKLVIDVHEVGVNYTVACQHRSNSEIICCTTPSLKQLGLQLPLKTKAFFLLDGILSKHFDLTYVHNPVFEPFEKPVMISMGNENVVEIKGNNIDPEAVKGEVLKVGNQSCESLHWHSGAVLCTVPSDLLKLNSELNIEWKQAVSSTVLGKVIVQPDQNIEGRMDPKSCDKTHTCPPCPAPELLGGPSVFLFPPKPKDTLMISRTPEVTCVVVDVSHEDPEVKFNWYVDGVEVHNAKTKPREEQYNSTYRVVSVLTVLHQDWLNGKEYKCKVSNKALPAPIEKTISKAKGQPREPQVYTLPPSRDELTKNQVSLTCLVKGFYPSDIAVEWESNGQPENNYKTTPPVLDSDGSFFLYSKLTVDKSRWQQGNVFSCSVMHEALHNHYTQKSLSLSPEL

For the substance “Ac-TGECTCPYWEFRPCECGSYSGAGGGK(ε-Cy5**)-NH2 (Ac-TGECTCPYWEFRPCECGSYSGAGGGK-NH2; disulfide 6-14; disulfide 4-16 (inferred); not fully specified (residue 26); printed as Ac-TGECTCPYWEFRPCECGSYSGAGGGK(ε-Cy5**)-NH2) [Compound 7, negative control; scrambled control peptide with the same dye as Compound 5]”, the “visual identification of tumour against background” value in the assay on HCT-15 tumours (1 nmol per animal i.v., HCT-15 tumour slice vs normal colon) is listed as “nothing was discernible against background”. Besides, the “tumour to normal ratio” value in the assay on HCT-15 tumours (1 nmol per animal i.v., HCT-15 tumour slice vs normal colon, ex vivo, 635 nm excitation) turned out to be 1.04. Besides, the “tumour: background ratios (summary in words)” value with HCT-15 tumours (animal model of cancer, Example 7) was “did not discriminate between tumour and background”.

With “Ac-Ala-Gly-Ser-Cys-Tyr-Cys-Ser-Gly-Pro-Pro-Arg-Phe-Glu-Cys-Trp-Cys-Tyr-Glu-Thr-Glu-Gly-Thr-Gly-Gly-Gly-Lys(Cy5)-NH2 (Ac-AGSCYCSGPPRFECWCYETEGTGGGK(Cy5)-NH2; also: two disulfides, pairing not given here) [Compound 3]”, the “binding to mouse c-Met (in words)” value in the assay with mouse c-Met/Fc chimera is “no binding”.

The values are drawn from patent US8529874B2, “Peptide imaging agents” (GE Healthcare AS, priority 2007, dated 2013).
